According to patent US7820629B2, “Galactose derivative, drug carrier and medicinal composition” (Nippon Shinyaku Co., Ltd., priority 2006, dated 2010):

Test system: HuH-7 cells (human hepatoma cell line)
Experiment: Evaluation of liver-targeting: uptake of tritium-labeled siRNA composition
Assay type: cell-based
Details: carriers of Examples 2 to 6 or Comparative Example 1 with tritium-labeled siRNA 100 nM, eight hours, by content (mg) of the Example 1 derivative
Description: (1) Preparation of a Nucleic Acid Solution
A nucleic acid solution containing a tritium-labeled siRNA composed of an oligo RNA having a sequence of SEQ ID NO 1 and an oligo RNA having a sequence of SEQ ID NO 2 was prepared by introducing tritium-labeled [2,5′,8-3H]adenosine 5′-triphosphate ammonium salt (manufactured by Amersham Bioscience), using in-vitro Transcription T7 Kit (manufactured by Takara Bio). The siRNA concentration in the nucleic acid solution was 20 μM. The specific activity was 6.4×10^5 dpm/μg.
341.25 μL of a nucleic acid solution containing 20 μM of a tritium-unlabeled siRNA composed of an oligo RNA having a sequence of SEQ ID NO 1 and an oligo RNA having a sequence of SEQ ID NO 2 was added to 8.75 μL of the nucleic acid solution prepared in the above step, thereby preparing a nucleic acid solution having a specific activity of 1.6×10^4 dpm/μg.
(2) Preparation of a Composition […]
HuH-7 cells (human hepatoma cell line) were seeded on a 6-well plate at 2.5×10^5 cells/well, and were incubated for 18 hours at 37° C. under 5% CO2. […] 4 mL of a liquid scintillation cocktail (Emulsifier Scintillator Plus, manufactured by Perkin Elmer) was added to each of the vials and mixed well, and the radioactivity was counted with a liquid scintillation counter (manufactured by Perkin Elmer).

N-[1-(D)-deoxylactito-1-yl]oleamide [Example 1]
liver-targeting potency (radioactivity of cells, FIG. 1): increases depending on the content
